Measured values as given in US4225472A, “Truncated somatostatin analogs” (American Home Products Corporation, priority 1979, dated 1980).
Positions of bridges follow the written chain, without caps; N, C: chain ends. Non-standard residues stand in square brackets, D forms with d. Residues, ends and D or L forms follow the SMILES beside them.

Experiments:
insulin = assay: Arginine-stimulated Nembutal-anesthetized rats, blood insulin by radioimmunoassay; format: in vivo, rat; settings: albino male rats, dose 100 μg/kg subcutaneous, arginine 10 min later, blood 5 min after arginine; control 74 ± 4
Description: (§1) The product of the preceding examples illustrates the selective activity of the compounds of this invention for growth hormone and glucagon suppression in the following standard procedure:
(§2) Albino male rats are administered Nembutal intraperitoneally at a dose of 50 milligrams per kilogram. Fifteen minutes later a subcutaneous injection of the test compound or physiological saline (control) is administered. Ten minutes later 0.5 milliliters of arginine (300 milligrams per milliliter, pH 7.2) is injected into the heart. Five minutes after receipt of the arginine the rats are decapitated and blood is collected into trasylol-EDTA. An appropriate aliquot is assayed for growth hormone (GH), insulin, and glucagon by radioimmunoassay.

growth hormone (GH) [1] = assay: Duration of activity, growth hormone level at 2 and 4 hours; format: in vivo; settings: dose 1,000 μg/kg, *p<0.01
Description: The duration of activity of the product of Example 2 was as follows: […]

growth hormone (GH) [2] = assay: Arginine-stimulated Nembutal-anesthetized rats, blood growth hormone by radioimmunoassay; format: in vivo, rat; settings: albino male rats, dose 100 μg/kg subcutaneous, arginine 10 min later, blood 5 min after arginine; control 488 ± 82; *p<0.05
Description: as §1, §2

glucagon = assay: Arginine-stimulated Nembutal-anesthetized rats, blood glucagon by radioimmunoassay; format: in vivo, rat; settings: albino male rats, dose 100 μg/kg subcutaneous, arginine 10 min later, blood 5 min after arginine; control 133 ± 13; *p<0.05
Description: as §1, §2

C[C@@H](O)[C@@H]1NC(=O)[C@H](CCCCN)NC(=O)[C@@H](Cc2c[nH]c3ccccc23)NC(=O)[C@H](Cc2c[nH]c3ccccc23)NC(=O)[C@H](Cc2ccccc2)NC(=O)[C@@H](N)CSSC[C@H](C(=O)O)NC(=O)[C@H](Cc2ccccc2)NC1=O [Example 2, L-Cysteinyl-L-phenylalanyl-L-tryptophyl-D-tryptophyl-L-lysyl-L-threonyl-L-phenylalanyl-D-cysteine cyclic (1-8) disulfide] (H-CFW[dW]KTF[dC]-OH; disulfide 1-8)
INS (insulin): 69 ± 4 μU/ml
GH (growth hormone (GH) [1]; 2 hours, control 369 ± 60): 60 ± 6 ng/mL
GH (growth hormone (GH) [1]; 4 hours, control 354 ± 68): 75 ± 10 ng/mL
GH (growth hormone (GH) [2]): 191 ± 60 ng/mL
GLUN (glucagon): 60 ± 12 pg/mL
